# Activity calls are given as the source filed them.
# Assays:
# [1] = HEK-293T cell viability reduction – luminescence, B-cell screen hits, cytotoxicity control for BCR NF-kB inhibitor project, dose response (AID 489021); format: functional, cell-based;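 also: HEK-293T cells carrying an NF-kB luciferase reporter; cells exposed to compound for about 14 hours before viability readout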
# [2] = A cytotoxicity screen of small molecule inhibitors of the PhoP region in Salmonella typhi identified in the primary screen. [Related pubchem assays: 1850, 1864, 1985 ]; format: functional
# Cytochrome P450 2D6 = Cytochrome P450 2D6 (Homo sapiens, UniProt P10635);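 also: CYP2D6 member of a cytochrome P450 panel assay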
# [3] = molecular target: T1, Heat shock factor protein 1 (Mus musculus, UniProt P38532); assay: enhancement of HSF1-driven luciferase signal – cell-based, NIH3T3, luminescence, dose retest, confirmation (AID 435004); format: functional;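 also: stress induced by proteasome inhibitor MG132 added 30 min after compound; luciferase reporter driven by HSF1 response element in NIH3T3 cells; actives raise luminescence as potentiators of the MG132 stress response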
# T1 sequence (P38532 whole entry): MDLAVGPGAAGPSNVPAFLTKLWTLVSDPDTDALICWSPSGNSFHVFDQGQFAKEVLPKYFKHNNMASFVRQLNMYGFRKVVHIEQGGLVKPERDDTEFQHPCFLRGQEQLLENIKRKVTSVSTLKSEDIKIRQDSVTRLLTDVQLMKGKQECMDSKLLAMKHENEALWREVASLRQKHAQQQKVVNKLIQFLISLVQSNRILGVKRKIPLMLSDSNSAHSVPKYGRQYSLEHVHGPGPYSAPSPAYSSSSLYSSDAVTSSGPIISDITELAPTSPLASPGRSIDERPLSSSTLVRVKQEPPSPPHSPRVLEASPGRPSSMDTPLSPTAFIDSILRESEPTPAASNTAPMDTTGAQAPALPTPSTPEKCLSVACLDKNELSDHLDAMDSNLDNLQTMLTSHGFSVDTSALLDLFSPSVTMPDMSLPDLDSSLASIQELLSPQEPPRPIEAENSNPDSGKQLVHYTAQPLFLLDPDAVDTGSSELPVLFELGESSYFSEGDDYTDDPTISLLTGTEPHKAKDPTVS
# [4] = HPDE-C7 pancreatic duct cell viability loss – fluorescence, HTS (AID 430); format: functional, cell-based; details: Homo sapiens
# [5] = viability loss of HPDE-C7K cells – cell-based, fluorescence, HTS, primary screen (AID 431); format: functional; details: Homo sapiens
# H9c2 = assay: cells; format: functional, cell-based; details: Rattus norvegicus, H9c2, Myocardium;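 also: confirmatory concentration-response retest of ultra-high-throughput screening hits for modulation of myocardial damage; cell death induced by hydrogen peroxide oxidative stress; compound pretreatment for 60 min then peroxide exposure for 2 h; potency is for protecting the cells against peroxide damage rather than for killing them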
# Estrogen receptor = molecular target: T2, Estrogen receptor (Homo sapiens, UniProt P03372);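 also: potency for inhibiting coactivator peptide recruitment to the receptor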
# T2 sequence (P03372 whole entry): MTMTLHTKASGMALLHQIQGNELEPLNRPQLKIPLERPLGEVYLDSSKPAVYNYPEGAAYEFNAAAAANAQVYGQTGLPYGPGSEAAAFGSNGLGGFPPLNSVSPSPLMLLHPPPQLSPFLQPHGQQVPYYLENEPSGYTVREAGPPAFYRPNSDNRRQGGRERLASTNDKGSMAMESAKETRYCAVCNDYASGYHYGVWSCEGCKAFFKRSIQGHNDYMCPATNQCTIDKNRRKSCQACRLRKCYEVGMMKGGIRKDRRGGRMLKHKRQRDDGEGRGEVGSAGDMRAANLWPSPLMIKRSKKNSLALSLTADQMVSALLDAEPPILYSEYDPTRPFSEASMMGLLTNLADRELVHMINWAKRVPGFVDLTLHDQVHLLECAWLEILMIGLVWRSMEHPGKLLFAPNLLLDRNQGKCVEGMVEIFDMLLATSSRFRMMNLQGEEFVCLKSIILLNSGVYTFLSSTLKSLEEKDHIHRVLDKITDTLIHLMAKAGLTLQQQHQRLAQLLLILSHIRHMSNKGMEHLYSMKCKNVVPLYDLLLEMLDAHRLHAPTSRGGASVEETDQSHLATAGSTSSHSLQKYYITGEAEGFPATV
# INS1 = assay: INS-1E survival protection against cytokine death – cell-based, luminescence, retest, dose response (AID 449756); format: functional; details: Rattus norvegicus;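 also: cell death triggered by IL-1 beta plus TNF-alpha plus IFN-gamma mixture; protective hits raise ATP signal compared with cytokine alone wells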
# [6] = molecular target: T3, Endoribonuclease toxin MazF (Escherichia coli K-12, UniProt P0AE70); assay: substrate-only fluorescence increase artefacts – biochemical, single-stranded RNase substrate, counter-screen for MazEF activator project, dose response (AID 588502); format: functional
# T3 sequence (P0AE70 whole entry): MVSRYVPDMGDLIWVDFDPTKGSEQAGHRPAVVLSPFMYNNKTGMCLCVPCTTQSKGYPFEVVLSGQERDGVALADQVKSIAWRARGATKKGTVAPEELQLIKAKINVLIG
# [7] = molecular target: T3, Endoribonuclease toxin MazF; assay: activation of MazEF endoribonuclease cleavage – biochemical, fluorescence, single-stranded RNA substrate, uHTS hits, dose response (AID 588481); format: functional
# [8] = molecular target: T4, Short transient receptor potential channel 4 (Mus musculus, UniProt Q9QUQ5); assay: calcium entry via TRPC4 opening agents – cell-based, HEK293 TRPC4/mu-opioid, Fluo-4 calcium, dose response (AID 434937); format: functional
# T4 sequence (Q9QUQ5 whole entry): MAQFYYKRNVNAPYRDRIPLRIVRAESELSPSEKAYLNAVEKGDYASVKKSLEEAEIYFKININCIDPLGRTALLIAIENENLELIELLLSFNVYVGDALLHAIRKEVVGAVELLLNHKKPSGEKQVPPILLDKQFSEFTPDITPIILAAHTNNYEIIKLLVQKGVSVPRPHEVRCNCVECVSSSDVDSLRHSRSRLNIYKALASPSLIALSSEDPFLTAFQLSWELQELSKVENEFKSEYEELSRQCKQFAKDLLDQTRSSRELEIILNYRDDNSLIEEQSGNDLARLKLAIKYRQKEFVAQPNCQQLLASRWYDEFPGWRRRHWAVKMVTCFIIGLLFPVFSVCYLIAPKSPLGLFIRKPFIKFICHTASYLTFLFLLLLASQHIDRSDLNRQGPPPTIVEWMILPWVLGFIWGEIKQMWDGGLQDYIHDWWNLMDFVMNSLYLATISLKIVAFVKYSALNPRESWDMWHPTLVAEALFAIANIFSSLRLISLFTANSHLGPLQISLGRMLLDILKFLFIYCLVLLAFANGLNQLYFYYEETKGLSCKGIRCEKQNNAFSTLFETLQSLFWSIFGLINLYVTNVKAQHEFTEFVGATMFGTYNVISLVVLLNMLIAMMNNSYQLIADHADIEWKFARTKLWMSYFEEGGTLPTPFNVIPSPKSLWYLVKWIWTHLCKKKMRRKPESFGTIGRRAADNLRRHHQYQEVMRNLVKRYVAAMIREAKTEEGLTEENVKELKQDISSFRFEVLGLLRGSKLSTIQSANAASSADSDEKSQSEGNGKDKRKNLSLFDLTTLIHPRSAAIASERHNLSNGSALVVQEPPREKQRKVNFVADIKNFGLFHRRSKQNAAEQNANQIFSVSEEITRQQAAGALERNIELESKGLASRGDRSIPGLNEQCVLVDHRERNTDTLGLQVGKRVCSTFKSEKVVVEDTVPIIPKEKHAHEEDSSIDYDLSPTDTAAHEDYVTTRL
# [9] = OVCAR-3 cell viability loss – plate reader, dry powder samples, PAX8 inhibitor project, dose response (AID 743044); format: functional, cell-based
# Paired box protein Pax-8 = Paired box protein Pax-8 (Homo sapiens, UniProt Q06710); assay: PAX8 transcriptional activity inhibition in RMG-I – RMG-I cells, luciferase, cherry-pick, dose response (AID 687027); format: functional, cell-based;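 also: luciferase reporter driven by Pax8 target thyroperoxidase promoter measured by SteadyGlo luminescence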
# [10] = growth inhibition of PfATP4-mutant resistant parasites – NITD609-resistant line, SYBR Green, dry powder, dose response (AID 1159571); format: functional, cell-based;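 also: parasites synchronized at ring stage by sorbitol before testing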
# [11] = toxicity to human HepG2 hepatoma cells – cell-based, plate reader, dry powder samples, cytotoxicity control, dose response (AID 1159569); format: functional;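 also: inhibitor potency with signal falling toward the positive control level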
# [12] = Dd2 malaria parasite growth inhibition potency – SYBR Green, dry powder samples, dose response (AID 1159566); format: functional, cell-based;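 also: potency for growth inhibition with lower SYBR green DNA signal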
# [13] = growth inhibition of yeast DHODH-expressing 3D7 parasites – SYBR Green, dry powder samples, dose response (AID 1159570); format: functional, cell-based;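 also: parasite growth measured after 72 hours of compound exposure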
# [14] = P. falciparum Dd2 growth inhibitors, dose response, SYBR Green, cherry-picked samples (AID 1159567); format: functional, cell-based
# Streptococcus = assay: GAS UMAA2166 growth inhibition – luminescence, BacTiterGlo, counter-screen for streptokinase expression inhibitor project, dose response (AID 1915); format: functional, organism-based;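 also: potency for reduction of bacterial viability or growth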
# [15] = test system: Streptococcus sp. 'group A'; assay: Streptococcus pyogenes SK(-)GAS viability under kanamycin – luminescence, BacTiterGlo, confirmation, counter-screen for streptokinase expression inhibitor project, dose response (AID 1900); format: functional, organism-based
# Cytochrome P450 3A4 = Cytochrome P450 3A4 (Homo sapiens, UniProt P08684); details: Potency;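 also: confirmatory qHTS run detecting inhibitors and substrates of CYP3A4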
# Sequence of Cytochrome P450 3A4 (P08684 whole entry): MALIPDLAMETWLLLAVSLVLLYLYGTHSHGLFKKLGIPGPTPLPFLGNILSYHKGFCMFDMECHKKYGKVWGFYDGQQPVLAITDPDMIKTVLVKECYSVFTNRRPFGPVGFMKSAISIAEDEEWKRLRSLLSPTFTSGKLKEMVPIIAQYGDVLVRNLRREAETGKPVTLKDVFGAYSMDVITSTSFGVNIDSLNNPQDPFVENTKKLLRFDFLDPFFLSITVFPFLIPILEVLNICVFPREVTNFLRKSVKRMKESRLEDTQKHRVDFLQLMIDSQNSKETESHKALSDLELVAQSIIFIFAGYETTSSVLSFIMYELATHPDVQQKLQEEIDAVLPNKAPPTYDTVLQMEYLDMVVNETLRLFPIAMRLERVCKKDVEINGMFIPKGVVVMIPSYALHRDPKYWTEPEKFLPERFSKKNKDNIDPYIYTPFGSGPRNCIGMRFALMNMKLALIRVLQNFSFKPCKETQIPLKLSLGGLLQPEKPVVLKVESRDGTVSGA
# Sequence of Paired box protein Pax-8 (Q06710 whole entry): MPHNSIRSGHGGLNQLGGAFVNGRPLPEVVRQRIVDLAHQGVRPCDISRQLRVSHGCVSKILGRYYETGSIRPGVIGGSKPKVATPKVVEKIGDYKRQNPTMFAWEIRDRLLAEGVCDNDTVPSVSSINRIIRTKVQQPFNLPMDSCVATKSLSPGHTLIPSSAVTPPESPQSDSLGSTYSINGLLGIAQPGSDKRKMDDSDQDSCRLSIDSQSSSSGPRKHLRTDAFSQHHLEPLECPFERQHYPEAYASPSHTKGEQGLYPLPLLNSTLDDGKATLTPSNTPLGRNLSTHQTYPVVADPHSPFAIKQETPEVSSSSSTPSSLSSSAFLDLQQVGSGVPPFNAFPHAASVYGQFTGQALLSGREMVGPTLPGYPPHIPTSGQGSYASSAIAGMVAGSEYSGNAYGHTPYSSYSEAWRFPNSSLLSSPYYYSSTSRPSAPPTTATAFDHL
# Sequence of Cytochrome P450 2D6 (P10635 whole entry): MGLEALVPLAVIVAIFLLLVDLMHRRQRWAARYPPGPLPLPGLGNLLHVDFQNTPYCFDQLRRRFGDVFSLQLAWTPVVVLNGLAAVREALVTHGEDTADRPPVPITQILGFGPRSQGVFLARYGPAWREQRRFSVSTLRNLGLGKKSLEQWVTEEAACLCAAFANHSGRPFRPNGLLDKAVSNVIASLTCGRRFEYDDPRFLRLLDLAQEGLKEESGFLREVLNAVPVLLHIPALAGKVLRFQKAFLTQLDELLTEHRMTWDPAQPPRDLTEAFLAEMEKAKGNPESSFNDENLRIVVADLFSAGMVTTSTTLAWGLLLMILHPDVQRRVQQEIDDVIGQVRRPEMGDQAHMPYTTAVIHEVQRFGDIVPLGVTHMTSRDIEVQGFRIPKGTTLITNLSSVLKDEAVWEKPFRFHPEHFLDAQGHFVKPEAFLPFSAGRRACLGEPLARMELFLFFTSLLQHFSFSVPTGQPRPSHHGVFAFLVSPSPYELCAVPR
compound,measurement,setting,value
CC(C)(C)c1ccc(-c2nnc(SCC(=O)NC3CC3)o2)cc1,IC50,[1],> 80 µM (inactive)
COc1ccc(CCN(C(=O)C(F)(F)F)C(C(=O)NC2CCCC2)c2cccs2)cc1 (configuration not stated),EC50,[2],> 50 µM (active)
same,AC50,Cytochrome P450 2D6,25.1 µM (inconclusive)
O=C(Oc1cccc2cccnc12)c1ccc(Br)o1,EC50,[3],> 260 µM (inactive)
same,EC50,[4],13.9 µM (active)
same,EC50,[5],> 20 µM (not active)
COc1nnc(-c2ccc(C)c(S(=O)(=O)NCCO)c2)c2ccccc12,IC50,H9c2,> 79 µM (inactive)
same,IC50,Estrogen receptor,> 50 µM (not active)
COc1cccc(-c2nc(NCc3ccco3)c3ccccc3n2)c1O,EC50,[4],> 20 µM (not active)
same,EC50,[5],1.11 µM (active)
Cc1ccc(C2=CC(c3ccc(N(C)C)cc3)n3nnnc3N2)cc1 (configuration not stated),EC50,[4],0.09 µM (active)
same,AC50,INS1,6.88 µM (active)
same,EC50,[5],0.21 µM (active)
same,EC50,[6],> 99 µM (inactive)
same,EC50,[7],> 99 µM (inactive)
COc1ccc(C(=O)C2CCCN(Cc3ccc(Sc4nncn4C)o3)C2)cc1F (configuration not stated),EC50,[8],3.35 µM (active)
C[C@@H]1CCCCO[C@@H](CN(C)Cc2ccc(Cl)c(Cl)c2)[C@H](C)CN([C@@H](C)CO)C(=O)c2cc(NC(=O)Nc3ccc(C(F)(F)F)cc3)ccc2O1,AC50,[9],29.6 µM (active)
same,AC50,Paired box protein Pax-8,5.08 µM (active)
C[C@@H]1CCCCO[C@@H](CN(C)S(=O)(=O)c2ccc(Cl)cc2)[C@H](C)CN([C@@H](C)CO)C(=O)c2cc(N(C)C)ccc2O1,AC50,[9],28.3 µM (active)
same,AC50,Paired box protein Pax-8,3.28 µM (active)
C[C@H](CO)N1C[C@H](C)[C@@H](CN(C)C(=O)C2CCCCC2)Oc2ncc(/C=C/c3ccccc3)cc2C1=O,AC50,[10],0.451 µM (active)
same,AC50,[11],50.2 µM (active)
same,AC50,[12],0.35 µM (active)
same,AC50,[13],0.608 µM (active)
same,AC50,[14],0.658 µM (active)
C[C@H]1CN([C@@H](C)CO)C(=O)c2c(c3ccccc3n2C)-c2ccccc2CO[C@H]1CN(C)C(=O)c1cc(Cl)cc(Cl)c1,AC50,[10],1.58 µM (active)
same,AC50,[11],27.8 µM (active)
same,AC50,[12],1.48 µM (active)
same,AC50,[13],2.36 µM (active)
same,AC50,[14],2.14 µM (active)
COc1ccc(C#Cc2ccc3c(c2)[C@H]2[C@H](CCN2Cc2ccncc2)[C@H](CO)N3)cc1,AC50,[10],1.11 µM (active)
same,AC50,[11],65.7 µM (active)
same,AC50,[12],0.922 µM (active)
same,AC50,[13],1.18 µM (active)
same,AC50,[14],1.19 µM (active)
C=C(C)[C@@H]1CC[C@]2(C(=O)O)CC[C@]3(C)[C@H](CC[C@@H]4[C@@]5(C)CCC(=O)C(C)(C)[C@@H]5CC[C@]43C)[C@@H]12 [BETUNOLIC ACID],IC50,[1],> 80 µM (inactive)
same,EC50,Streptococcus,2.88 µM (active)
same,EC50,[15],1.68 µM (active)
COc1cc(-c2cc(=O)c3c(O)c(OC)c(OC)c(OC)c3o2)cc(OC)c1OC [GARDENIN],IC50,[1],> 80 µM (inactive)
same,AC50,Cytochrome P450 3A4,3.16 µM (inconclusive)
CCOc1ccc2ccccc2c1C(=O)N[C@@H]1C(=O)N2[C@@H]1SC(C)(C)[C@@H]2C(=O)O [NAFCILLIN SODIUM],EC50,[2],> 50 µM (active)
same,IC50,H9c2,> 79 µM (inactive)

# — ChEMBL document CHEMBL1201862, “PubChem BioAssay data set” (2004)
